Read-outs that look alike come from different tables or passages of the source.
Molecular target: T1, mouse TMEM16A mutant K603Q (Mus musculus, UniProt Q8BHY3, K603Q)
T1 construct: expressed in transfected cells; host or cells: HEK293T
T1 sequence (Q8BHY3 1-960 K603Q): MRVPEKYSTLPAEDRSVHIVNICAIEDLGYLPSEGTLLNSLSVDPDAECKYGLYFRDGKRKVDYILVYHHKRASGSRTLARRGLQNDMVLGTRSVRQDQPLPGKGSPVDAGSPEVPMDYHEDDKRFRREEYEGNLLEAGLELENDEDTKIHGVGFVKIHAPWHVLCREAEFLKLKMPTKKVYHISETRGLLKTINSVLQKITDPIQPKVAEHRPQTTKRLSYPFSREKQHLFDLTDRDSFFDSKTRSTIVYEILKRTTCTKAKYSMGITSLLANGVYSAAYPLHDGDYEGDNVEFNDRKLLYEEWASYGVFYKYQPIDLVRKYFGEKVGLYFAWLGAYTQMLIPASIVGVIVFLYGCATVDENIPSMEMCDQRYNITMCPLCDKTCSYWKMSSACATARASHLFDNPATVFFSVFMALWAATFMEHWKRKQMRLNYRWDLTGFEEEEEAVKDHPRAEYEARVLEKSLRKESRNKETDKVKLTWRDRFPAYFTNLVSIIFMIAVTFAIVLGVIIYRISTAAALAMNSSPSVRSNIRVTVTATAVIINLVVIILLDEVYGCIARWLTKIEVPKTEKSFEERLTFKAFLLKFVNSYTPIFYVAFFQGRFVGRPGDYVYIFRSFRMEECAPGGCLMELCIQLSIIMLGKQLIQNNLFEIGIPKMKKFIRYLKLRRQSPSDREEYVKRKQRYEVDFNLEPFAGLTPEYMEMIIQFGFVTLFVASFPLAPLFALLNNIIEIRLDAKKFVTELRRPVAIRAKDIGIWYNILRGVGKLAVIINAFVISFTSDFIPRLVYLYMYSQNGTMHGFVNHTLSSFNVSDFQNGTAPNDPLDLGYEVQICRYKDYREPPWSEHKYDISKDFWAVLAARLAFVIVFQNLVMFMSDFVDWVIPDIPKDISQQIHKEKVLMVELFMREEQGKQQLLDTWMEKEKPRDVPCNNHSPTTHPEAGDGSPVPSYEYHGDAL
Test: Inside-out patch recording of 1PBC block, mutant K603Q
Assay type: cell-based
Protocol: HEK293T cells (ATCC CRL-1573) were maintained in Dulbecco’s modified Eagle’s medium (DMEM; Sigma-Aldrich) supplemented with 10 U ml^−1 penicillin, 0.1 mg ml^−1 streptomycin (Sigma-Aldrich), 2 mM L-glutamine (Sigma-Aldrich), and 10% FBS (Sigma-Aldrich) in a humidified atmosphere containing 5% CO2 at 37 °C. HEK293S GnTI^− cells (ATCC CRL-3022) were maintained in HyClone HyCell TransFx-H medium (GE Healthcare) supplemented with 10 U ml^−1 penicillin, 0.1 mg ml^−1 streptomycin, 4 mM L-glutamine, 0.15% poloxamer 188 (Sigma-Aldrich), and 1% FBS in an atmosphere containing 5% CO2 at 185 rpm at 37 °C. The ac splice variant of mouse TMEM16A (UniProt ID: Q8BHY3), mouse TMEM16B (UniProt ID: Q8CFW1), or mouse TMEM16F (UniProt ID: Q6P9J9) bearing a 3C cleavage site, a Venus YFP, a Myc tag, and a Streptavidin-binding peptide (SBP) downstream of the open reading frame in a modified pcDNA3.1 vector (Invitrogen) were used as described previously[21],[31]. Mutations were introduced using a modified QuikChange method[58] and were verified by sequencing.
HEK293T cells were transfected with 3–4 μg DNA per 6 cm Petri dish using the calcium phosphate co-precipitation method and were used within 24–96 h after transfection. Recordings were performed on inside-out patches excised from HEK293T cells expressing the construct of interest. Patch pipettes were pulled from borosilicate glass capillaries (O.D. 1.5 mm, I.D. 0.86 mm, Sutter Instrument) and were fire-polished with a microforge (Narishige) before use. Pipette resistance was typically 3–8 MΩ when filled with the recording solutions detailed below. Seal resistance was typically 4 GΩ or higher. Voltage-clamp recordings were made using Axopatch 200B, Digidata 1550, and Clampex 10.7 (Molecular Devices). Analog signals were filtered with the in-built 4-pole Bessel filter at 10 kHz and were digitized at 20 kHz. Solution exchange was achieved using a gravity-fed system through a theta glass pipette mounted on an ultra-fast piezo-driven stepper (Siskiyou). […] All recordings were performed at 20 °C.
A symmetrical ionic condition was used throughout. Stock solution with Ca^2+-EGTA contained 150 mM NaCl, 5.99 mM Ca(OH)2, 5 mM EGTA, and 10 mM HEPES at pH 7.40. Stock solution with EGTA contained 150 mM NaCl, 5 mM EGTA, and 10 mM HEPES at pH 7.40. Free Ca^2+ concentrations were adjusted by mixing the stock solutions at the required ratios calculated using the WEBMAXC program (http://web.stanford.edu/~cpatton/webmaxcS.htm). Patch pipettes were filled with the stock solution with Ca^2+-EGTA, which has a free Ca^2+ concentration of 1 mM. 1PBC (ChemBridge) stock was reconstituted in anhydrous DMSO (Sigma-Aldrich) at 100 mM and stored at −20 °C. Working solutions with 1PBC were prepared by serial dilution. Unless otherwise stated, experiments were performed at a saturating Ca^2+ concentration as shown in Supplementary Table 1 and the primary data were corrected for current rundown as described previously[21],[25].
Concentration-response relations, obtained from the ratio of the I-V plots before and after the application of the blocker, were fitted to the Hill equation,1 I/Imax=1/1+IC50/[blocker]^h where I/Imax is the normalized current responses, IC50 defines the concentration at which inhibition is at its half-maximum, and h is the Hill coefficient.

Work on `N#Cc1c(C(F)(F)F)cc(O)n2c1nc1ccccc12` [1PBC] yielded an IC50 (0 mV, 4 µM Ca2+) of 193 µM, a remaining activity at 10 µM (0 mV, 1PBC conc 10, read-out: relative current in 1PBC (avr)) of 94.4% and a remaining activity at 30 µM (0 mV, 1PBC conc 30, read-out: relative current in 1PBC (avr)) of 85.8%. It also gave a remaining activity at 100 µM (0 mV, 1PBC conc 100, read-out: relative current in 1PBC (avr)) of 66.3%, a remaining activity at 10 µM (10 µM 1PBC, +80 mV, saturating Ca2+ (4 µM), read-out: I/Imax) of 95.1% and a remaining activity at 10 µM (10 µM 1PBC, -80 mV, saturating Ca2+ (4 µM), read-out: I/Imax) of 92.8%. It also gave a remaining activity at 30 µM (30 µM 1PBC, +80 mV, saturating Ca2+ (4 µM), read-out: I/Imax) of 87%, a remaining activity at 30 µM (30 µM 1PBC, -80 mV, saturating Ca2+ (4 µM), read-out: I/Imax) of 86.9% and a remaining activity at 100 µM (100 µM 1PBC, +80 mV, saturating Ca2+ (4 µM), read-out: I/Imax) of 65.4%. The remaining activity at 100 µM (100 µM 1PBC, -80 mV, saturating Ca2+ (4 µM), read-out: I/Imax) was 66.1%, the IC50 (20 mV, 4 µM Ca2+) was 206 µM and the remaining activity at 10 µM (20 mV, 1PBC conc 10, read-out: relative current in 1PBC (avr)) was 96.5%. For the same compound, the remaining activity at 30 µM (20 mV, 1PBC conc 30, read-out: relative current in 1PBC (avr)) was 87.2%, the remaining activity at 100 µM (20 mV, 1PBC conc 100, read-out: relative current in 1PBC (avr)) was 67.1% and the IC50 (40 mV, 4 µM Ca2+) was 190 µM. It also gave a remaining activity at 10 µM (40 mV, 1PBC conc 10, read-out: relative current in 1PBC (avr)) of 94.6%, a remaining activity at 30 µM (40 mV, 1PBC conc 30, read-out: relative current in 1PBC (avr)) of 87.4% and a remaining activity at 100 µM (40 mV, 1PBC conc 100, read-out: relative current in 1PBC (avr)) of 65%. It also gave an IC50 (60 mV, 4 µM Ca2+) of 196 µM, a remaining activity at 10 µM (60 mV, 1PBC conc 10, read-out: relative current in 1PBC (avr)) of 95% and a remaining activity at 30 µM (60 mV, 1PBC conc 30, read-out: relative current in 1PBC (avr)) of 86.3%. The remaining activity at 100 µM (60 mV, 1PBC conc 100, read-out: relative current in 1PBC (avr)) was 66.4%, the “log-fold IC50 (change of mutant vs WT)” value (80 mV) was 1.991 and the IC50 (80 mV, 4 µM Ca2+) was 192 µM. The remaining activity at 10 µM (80 mV, 1PBC conc 10, read-out: relative current in 1PBC (avr)) was 95.1%, the remaining activity at 30 µM (80 mV, 1PBC conc 30, read-out: relative current in 1PBC (avr)) was 87% and the remaining activity at 100 µM (80 mV, 1PBC conc 100, read-out: relative current in 1PBC (avr)) was 65.4%. It also gave an IC50 (100 mV, 4 µM Ca2+) of 197 µM, a remaining activity at 10 µM (100 mV, 1PBC conc 10, read-out: relative current in 1PBC (avr)) of 95.8% and a remaining activity at 30 µM (100 mV, 1PBC conc 30, read-out: relative current in 1PBC (avr)) of 87.5%. It also gave a remaining activity at 100 µM (100 mV, 1PBC conc 100, read-out: relative current in 1PBC (avr)) of 65.8%, an IC50 (120 mV, 4 µM Ca2+) of 198 µM and a remaining activity at 10 µM (120 mV, 1PBC conc 10, read-out: relative current in 1PBC (avr)) of 97.2%. It also gave a remaining activity at 30 µM (120 mV, 1PBC conc 30, read-out: relative current in 1PBC (avr)) of 88.7%, a remaining activity at 100 µM (120 mV, 1PBC conc 100, read-out: relative current in 1PBC (avr)) of 65% and an IC50 (140 mV, 4 µM Ca2+) of 196 µM. The remaining activity at 10 µM (140 mV, 1PBC conc 10, read-out: relative current in 1PBC (avr)) was 97.5%, the remaining activity at 30 µM (140 mV, 1PBC conc 30, read-out: relative current in 1PBC (avr)) was 89.1% and the remaining activity at 100 µM (140 mV, 1PBC conc 100, read-out: relative current in 1PBC (avr)) was 64.5%. The IC50 (-20 mV, 4 µM Ca2+) was 180 µM, the remaining activity at 10 µM (-20 mV, 1PBC conc 10, read-out: relative current in 1PBC (avr)) was 92.4% and the remaining activity at 30 µM (-20 mV, 1PBC conc 30, read-out: relative current in 1PBC (avr)) was 84.5%. For the same compound, the remaining activity at 100 µM (-20 mV, 1PBC conc 100, read-out: relative current in 1PBC (avr)) was 65.5%, the IC50 (-40 mV, 4 µM Ca2+) was 187 µM and the remaining activity at 10 µM (-40 mV, 1PBC conc 10, read-out: relative current in 1PBC (avr)) was 93.3%. The remaining activity at 30 µM (-40 mV, 1PBC conc 30, read-out: relative current in 1PBC (avr)) was 86.6%, the remaining activity at 100 µM (-40 mV, 1PBC conc 100, read-out: relative current in 1PBC (avr)) was 65.2% and the IC50 (-60 mV, 4 µM Ca2+) was 193 µM. The remaining activity at 10 µM (-60 mV, 1PBC conc 10, read-out: relative current in 1PBC (avr)) was 93.8%, the remaining activity at 30 µM (-60 mV, 1PBC conc 30, read-out: relative current in 1PBC (avr)) was 84.7% and the remaining activity at 100 µM (-60 mV, 1PBC conc 100, read-out: relative current in 1PBC (avr)) was 67.1%. The IC50 (-80 mV, 4 µM Ca2+) was 193 µM, the remaining activity at 10 µM (-80 mV, 1PBC conc 10, read-out: relative current in 1PBC (avr)) was 92.8% and the remaining activity at 30 µM (-80 mV, 1PBC conc 30, read-out: relative current in 1PBC (avr)) was 86.9%. The remaining activity at 100 µM (-80 mV, 1PBC conc 100, read-out: relative current in 1PBC (avr)) was 66.1%, the IC50 (-100 mV, 4 µM Ca2+) was 199 µM and the remaining activity at 10 µM (-100 mV, 1PBC conc 10, read-out: relative current in 1PBC (avr)) was 95.1%. For the same compound, the remaining activity at 30 µM (-100 mV, 1PBC conc 30, read-out: relative current in 1PBC (avr)) was 86.6%, the remaining activity at 100 µM (-100 mV, 1PBC conc 100, read-out: relative current in 1PBC (avr)) was 66.7% and the IC50 (-120 mV, 4 µM Ca2+) was 202 µM. For the same compound, the remaining activity at 10 µM (-120 mV, 1PBC conc 10, read-out: relative current in 1PBC (avr)) was 94.9%, the remaining activity at 30 µM (-120 mV, 1PBC conc 30, read-out: relative current in 1PBC (avr)) was 86.9% and the remaining activity at 100 µM (-120 mV, 1PBC conc 100, read-out: relative current in 1PBC (avr)) was 67%. The IC50 (-140 mV, 4 µM Ca2+) was 216 µM, the remaining activity at 10 µM (-140 mV, 1PBC conc 10, read-out: relative current in 1PBC (avr)) was 96.6% and the remaining activity at 30 µM (-140 mV, 1PBC conc 30, read-out: relative current in 1PBC (avr)) was 88.1%. It also gave a remaining activity at 100 µM (-140 mV, 1PBC conc 100, read-out: relative current in 1PBC (avr)) of 68%, an IC50 (K603Q, V 0 mV) of 193 µM and an IC50 (K603Q, V 20 mV) of 206 µM. It also gave an IC50 (K603Q, V 40 mV) of 190 µM, an IC50 (K603Q, V 60 mV) of 196 µM and an IC50 (K603Q, V 80 mV) of 192 µM. For the same compound, the IC50 (K603Q, V 100 mV) was 197 µM, the IC50 (K603Q, V 120 mV) was 198 µM and the IC50 (K603Q, V 140 mV) was 196 µM. It also gave an IC50 (K603Q, V -20 mV) of 180 µM, an IC50 (K603Q, V -40 mV) of 187 µM and an IC50 (K603Q, V -60 mV) of 193 µM. It also gave an IC50 (K603Q, V -80 mV) of 193 µM, an IC50 (K603Q, V -100 mV) of 199 µM and an IC50 (K603Q, V -120 mV) of 202 µM. For the same compound, the IC50 (K603Q, V -140 mV) was 216 µM and the “Lowering of the potency of block vs WT” value (Lys 603 to glutamine) was “about 100 fold”.
